Data on 13 compounds can be found in patent US12312337B2, “Compounds and methods for treating cancer” (ANTIDOTE IP HOLDINGS, LLC, priority 2019, dated 2025).

SMILES strings stand for the structures.

For the first data set, the target named is T1, human AhR (Homo sapiens, UniProt P35869).
T1 construct: INDIGO's Aryl Hydrocarbon Receptor (AhR) Reporter Cells include the luciferase reporter gene functionally linked to an AhR-responsive promoter
T1 sequence (P35869 11-848): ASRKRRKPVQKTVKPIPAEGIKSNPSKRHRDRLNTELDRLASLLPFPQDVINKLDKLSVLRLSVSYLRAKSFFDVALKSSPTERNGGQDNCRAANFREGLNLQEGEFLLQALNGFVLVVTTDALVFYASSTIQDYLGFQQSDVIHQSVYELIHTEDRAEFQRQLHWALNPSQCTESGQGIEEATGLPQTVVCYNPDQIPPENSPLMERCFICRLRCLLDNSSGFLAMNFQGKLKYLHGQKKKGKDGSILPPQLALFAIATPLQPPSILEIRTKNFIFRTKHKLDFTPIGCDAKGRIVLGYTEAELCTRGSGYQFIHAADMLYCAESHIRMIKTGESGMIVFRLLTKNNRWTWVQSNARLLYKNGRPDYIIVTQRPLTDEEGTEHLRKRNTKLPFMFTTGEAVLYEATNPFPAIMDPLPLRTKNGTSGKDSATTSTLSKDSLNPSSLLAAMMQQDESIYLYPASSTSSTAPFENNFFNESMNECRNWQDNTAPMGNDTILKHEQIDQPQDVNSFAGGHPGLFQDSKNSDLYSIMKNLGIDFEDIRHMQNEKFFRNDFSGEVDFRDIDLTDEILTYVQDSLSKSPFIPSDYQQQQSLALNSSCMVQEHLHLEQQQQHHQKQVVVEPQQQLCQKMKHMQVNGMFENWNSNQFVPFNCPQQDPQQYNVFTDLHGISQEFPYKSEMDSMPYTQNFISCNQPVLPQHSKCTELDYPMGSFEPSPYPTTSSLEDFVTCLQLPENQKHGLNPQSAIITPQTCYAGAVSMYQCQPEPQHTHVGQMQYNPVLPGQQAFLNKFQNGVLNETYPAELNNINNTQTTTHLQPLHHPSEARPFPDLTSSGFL
Put plainly: INDIGO AhR Reporter Assay (luciferase reporter cells, antagonist mode). Type of data set: cell-based. The following applies: antagonist mode with 50 nM of VAF347 (AhR agonist); 22-24 hours incubation; luciferase RLU. The text has this:
INDIGO's Aryl Hydrocarbon Receptor (AhR) Reporter Cells include the luciferase reporter gene functionally linked to an AhR-responsive promoter. Thus, quantifying changes in luciferase expression in the treated reporter cells provides a sensitive surrogate measure of the changes in AhR activity. The principle application of this reporter assay is in the screening of test samples to quantify any functional activity, either agonist or antagonist, that they may exert against human AhR. Reporter Cells incorporate the cDNA encoding beetle luciferase, a 62 kD protein originating from the North American firefly (Photinus pyralis). Luciferase catalyzes the mono-oxidation of D-luciferin in a Mg^2+-dependent reaction that consumes 02 and ATP as co-substrates, and yields as products oxyluciferin, AMP, PPi, CO2, and photon emission. Luminescence intensity of the reaction is quantified using a luminometer, and is reported in terms of Relative Light Units (RLU's). In brief, 200 μl of Reporter Cells was dispensed into wells of the assay plate and pre-incubated for 4-6 hours. Following the pre-incubation period, culture media were discarded and 200 µl/well of the prepared 1×-concentration treatment media were added. Following 22-24 hours of incubation, treatment media were discarded and Luciferase Detection Reagent was added. The intensity of light emission (in units of “Relative Light Units” (RLU)) from each assay well was quantified using a plate-reading luminometer. The assay was run as a competitive binding assay in the antagonist mode with 50 nM of VAF347, a known AhR agonist.
In Table 4, IC50 values are reported as A, B, C, or D. A represents an IC50 value of less than 100 nM. B represents an IC50 value of equal or greater than 100 nM and less than 500 nM. C represents an IC50 value of equal or greater than 500 nM and less than 1 μM. D represents an IC50 value of equal or greater than 1 μM.
A general note: In a reporter assay the amount or activity of a reporter protein is the signal.
With `Cn1nc(C(F)(F)F)cc1NC(=O)c1ccc2cc(-c3ncc(F)cn3)cnc2c1` [Compound 123, 3-(5-fluoropyrimidin-2-yl)-N-[1-methyl-3-(trifluoromethyl)-1H-pyrazol-5-yl]quinoline-7-carboxamide], the IC50 was < 100 nM.

`Cn1nc(C(F)(F)F)cc1NC(=O)c1ccc2cc(-c3ncc(F)cc3F)cnc2c1` [Compound 124, 3-(3,5-difluoropyridin-2-yl)-N-[l-methyl-3-(trifluoromethyl)-1H-pyrazol-5-yl]quinoline-7-carboxamide]: the IC50 is < 100 nM. Compound `Cn1nc(-c2ccccc2)cc1NC(=O)c1ccc2cc(-c3ccncc3F)cnc2c1` [Compound 125, 3-(3-fluoropyridin-4-yl)-N-(1-methyl-3-phenyl-1H-pyrazol-5-yl) quinoline-7-carboxamide] gave an IC50 of 100 to 500 nM. On the same count and under the same terms, in the case of `Cn1nc(-c2ccccc2)cc1NC(=O)c1ccc2cc(-c3ccc(F)cn3)cnc2c1` [Compound 128, 3-(5-fluoropyridin-2-yl)-N-(1-methyl-3-phenyl-1H-pyrazol-5-yl) quinoline-7-carboxamide] it was < 100 nM. Still for that read-out and setting: the value for `CCN(CC)S(=O)(=O)c1cc(NC(=O)c2cc3cc(-c4ccc(F)cc4)cnc3s2)ccc1Cl` [Compound 141, N-[4-chloro-3-(N,N-diethylsulfamoyl)phenyl]-5-(4-fluorophenyl)-thieno[2,3-b]pyridine-2-carboxamide] was 100 to 500 nM; that for `CCN(CC)S(=O)(=O)c1cc(NC(=O)c2cc3cc(-c4ccncc4)cnc3s2)ccc1Cl` [Compound 142, N-[4-chloro-3-(N,N-diethylsulfamoyl)phenyl]-5-(pyridin-4-yl)-thieno[2,3-b]pyridine-2-carboxamide] was 100 to 500 nM. Still for that read-out and setting: in the case of `CCN(CC)S(=O)(=O)c1cc(NC(=O)c2cc3cc(-c4ccccn4)cnc3s2)ccc1Cl` [Compound 144, N-[4-chloro-3-(N,N-diethylsulfamoyl)phenyl]-5-(pyridin-2-yl)-thieno[2,3-b]pyridine-2-carboxamide] it was 500 to 1000 nM. On to `CCN(CC)S(=O)(=O)c1cc(NC(=O)c2cc3cc(-c4ccncc4F)cnc3s2)ccc1Cl` [Compound 145, N-[4-chloro-3-(N,N-diethylsulfamoyl)phenyl]-5-(3-fluoropyridin-4-yl)-thieno[2,3-b]pyridine-2-carboxamide], for which the IC50 is 100 to 500 nM. Still for that read-out and setting: in the case of `CN(C)S(=O)(=O)c1cc(NC(=O)c2cc3cc(-c4ccc(F)cc4)cnc3s2)ccc1Cl` [Compound 148, N-[4-chloro-3-(N,N-dimethylsulfamoyl)phenyl]-5-(4-fluorophenyl)-thieno[2,3-b]pyridine-2-carboxamide] it was 100 to 500 nM; in that of `CCN(CC)S(=O)(=O)c1cc(NC(=O)c2cc3cc(-c4ccc(F)cn4)cnc3s2)ccc1Cl` [Compound 151, N-[4-chloro-3-(N,N-diethylsulfamoyl)phenyl]-5-(5-fluoropyridin-2-yl)-thieno[2,3-b]pyridine-2-carboxamide], > 1000 nM; in that of `CN(C)S(=O)(=O)c1cc(NC(=O)c2cc3cc(-c4ccncc4F)cnc3s2)ccc1Cl` [Compound 153, N-[4-chloro-3-(N,N-dimethylsulfamoyl)phenyl]-5-(3-fluoropyridin-4-yl)-thieno[2,3-b]pyridine-2-carboxamide], 500 to 1000 nM. In turn, `CN1CCN(S(=O)(=O)c2cc(NC(=O)c3ccc4c(c3)NC(=O)CO4)ccc2Cl)CC1` [Compound 172] had an IC50 of 500 to 1000 nM.

The next data set relates to AhR.
Test: not given
The note with it: binding to the AhR; acts as an agonist; read-out: apparent Kd; cited from earlier work.
For the compound `Nc1ccccc1C(=O)CC(N)C(=O)O` (stereo not shown) [Kynurenine], the Kd is ~4000 nM.

The IC50 is the midpoint of a concentration-inhibition curve. Read a low IC50 as greater potency.
